Consider five compounds from ChEMBL document CHEMBL6153037, “Developing dual-responsive quinolinium prodrugs of 8-hydroxyquinoline by harnessing the dual chelating sites” (Eur J Med Chem, 2025).

In brackets after ≈: the same amount, converted by molar mass. Activity calls are given as the source filed them. The rule behind the calls is not given here.

The test system of series [1] is MDA-MB-231. In words: Cytotoxicity against human MDA-MB-231 cells incubated for 12 hrs by MTT assay. It counts as functional, cell-based. The settings on record: MDA-MB-231, 12 h.
The test system of series [2] is MDA-MB-231. The series is described as follows: Cytotoxicity against human MDA-MB-231 cells assessed as decrease in cell viability at 5 uM incubated for 48 hrs by MTT assay relative to control. It counts as functional. (In general: Formazan colour is commonly taken as a measure of viable cells.)
The next series deals with A549. The series is described as follows: Cytotoxicity against human A549 cells in presence of Cu2+ by MTT assay. It counts as functional, cell-based.
Series [3] has as its system MDA-MB-231. The series is described as follows: Cytotoxicity against human MDA-MB-231 cells in presence of Cu2+ by MTT assay. It counts as functional, cell-based.
A short description of series [4]: Toxicity in BALB/c nude mouse xenografted with human MDA-MB-231 cells assessed as body weight change at 20 mg/kg, iv administered every two days for 21 days. It counts as organism-based. The settings on record: in vivo, 504 h, time 21 day. On the technique in general: In xenograft studies the graft and the host belong to different species.
Series [5] relates to MDA-MB-231. In words: Induction of apoptosis in human MDA-MB-231 cells assessed as late apoptotic cells at 0.8 uM incubated for 24 hrs by Annexin V-FITC/PI staining based flow cytometry (reference value: 5.81 %). It counts as functional. (In general: A flow cytometer gives signals particle by particle.)
The subject of series [6] is MDA-MB-231. In words: Inhibition of mitochondrial membrane potential in human MDA-MB-231 cells incubated for 24 hrs in presence of UV by JC-1 dye based analysis (reference value: 5.51 %). It counts as functional.
The subject of series [7] is MDA-MB-231. The series is described as follows: Anti-migration activity in human MDA-MB-231 cells at 0.8 uM incubated for 48 hrs by wound healing assay (reference value: 65.2 %). It counts as functional.
Series [8] relates to MDA-MB-231. The series is described as follows: Antitumor activity against human MDA-MB-231 cells assessed as sphere-forming efficiency incubated for 6 hrs followed by medium replacement without compound measured after 6 days by microscopic analysis (reference value: 1.07 %). It counts as functional.
In series [9] the test system is MDA-MB-231. The series is described as follows: Induction of apoptosis in human MDA-MB-231 cells assessed as early apoptotic cells incubated for 24 hrs by Annexin V-FITC/PI staining based flow cytometry (reference value: 1.94 %). It counts as functional.
Series [10] deals with MDA-MB-231. The series is described as follows: Induction of apoptosis in human MDA-MB-231 cells assessed as early apoptotic cells at 0.8 uM incubated for 24 hrs by Annexin V-FITC/PI staining based flow cytometry (reference value: 7.39 %). It counts as functional.
Series [11] relates to MDA-MB-231. In words: Induction of apoptosis in human MDA-MB-231 cells assessed as necrotic cells incubated for 24 hrs by Annexin V-FITC/PI staining based flow cytometry (reference value: 3.6 %). It counts as functional.
Series [12] deals with MDA-MB-231. The series is described as follows: Induction of apoptosis in human MDA-MB-231 cells assessed as necrotic cells at 0.8 uM incubated for 24 hrs by Annexin V-FITC/PI staining based flow cytometry (reference value: 0.59 %). It counts as functional.
In series [13] the test system is MDA-MB-231. In words: Induction of apoptosis in human MDA-MB-231 cells assessed as viable cells at 0.8 uM incubated for 24 hrs by Annexin V-FITC/PI staining based flow cytometry (reference value: 86.2 %). It counts as functional. The settings on record: read-out: Activity.
Series [14] has as its system MCF-10A. The series is described as follows: Inhibition of mitochondrial membrane potential in human MCF-10A cells assessed as increase in green fluorescence at 0.8 uM incubated for 24 hrs by JC-1 dye based analysis. It counts as toxicity, cell-based.
Series [15] has as its system MDA-MB-231. The series is described as follows: Induction of apoptosis in human MDA-MB-231 cells assessed as viable cells incubated for 24 hrs by Annexin V-FITC/PI staining based flow cytometry (reference value: 92.06 %). It counts as functional.
Series [16] concerns MDA-MB-231. The series is described as follows: Induction of cell cycle arrest in human MDA-MB-231 cells assessed as accumulation at G0/G1 phase in presence of UV by PI staining based flow cytometry (reference value: 43.25 %). It counts as functional.
The subject of series [17] is MDA-MB-231. In words: Anti-migration activity in human MDA-MB-231 cells at 0.8 uM incubated for 24 hrs by wound healing assay (reference value: 45.4 %). It counts as functional.
For series [18], the system named is MCF-10A. The series is described as follows: Induction of apoptosis in human MCF-10A cells assessed as necrotic cells at 0.8 uM incubated for 24 hrs by Annexin V-FITC/PI staining based flow cytometry (reference value: 1.38 %). It counts as toxicity, cell-based.
Series [19] concerns MDA-MB-231. In words: Inhibition of mitochondrial membrane potential in human MDA-MB-231 cells assessed as increase in green fluorescence at 0.8 uM incubated for 24 hrs by JC-1 dye based analysis. It counts as functional, cell-based.
Series [20] can be described thus: Induction of apoptosis in human MCF-10A cells assessed as viable cells at 0.8 uM incubated for 24 hrs by Annexin V-FITC/PI staining based flow cytometry (reference value: 92.5 %). It counts as toxicity, cell-based. The settings on record: read-out: Activity.
Series [21] relates to MCF-10A. The series is described as follows: Induction of apoptosis in human MCF-10A cells assessed as early apoptotic cells at 0.8 uM incubated for 24 hrs by Annexin V-FITC/PI staining based flow cytometry (reference value: 2.96 %). It counts as toxicity, cell-based.
For series [22], the system named is MCF-10A. In words: Induction of apoptosis in human MCF-10A cells assessed as late apoptotic cells at 0.8 uM incubated for 24 hrs by Annexin V-FITC/PI staining based flow cytometry (reference value: 3.13 %). It counts as toxicity, cell-based.
Series [23] concerns MDA-MB-231. The series is described as follows: Induction of cell cycle arrest in human MDA-MB-231 cells assessed as accumulation at G0/G1 phase at 0.8 uM by PI staining based flow cytometry (reference value: 64.6 %). It counts as functional.
In series [24] the test system is MDA-MB-231. In words: Induction of apoptosis in human MDA-MB-231 cells assessed as late apoptotic cells incubated for 24 hrs by Annexin V-FITC/PI staining based flow cytometry (reference value: 2.4 %). It counts as functional.
Series [25] relates to MDA-MB-231. In words: Induction of apoptosis in human MDA-MB-231 cells assessed as necrotic cells incubated for 24 hrs by Annexin V-FITC/PI staining based flow cytometry (reference value: 0.065 %). It counts as functional.
Series [26] relates to MDA-MB-231. In words: Effect on phlorizin-induced cytotoxicity against human MDA-MB-231 cells incubated for 12 hrs by MTT assay. It counts as functional, cell-based.
Series [27] in a line: Selectivity index, ratio of inhibition of DNA synthesis in human MCF-10A cells to inhibition of DNA synthesis in human MDA-MB-231 cells. It counts as toxicity, cell-based. The settings on record: MCF-10A cells and MDA-MB-231 cells.
Series [28] has as its system MCF-10A. In words: Induction of apoptosis in human MCF-10A cells assessed as late apoptotic cells incubated for 24 hrs by Annexin V-FITC/PI staining based flow cytometry (reference value: 2.16 %). It counts as toxicity, cell-based.
For series [29], the system named is MDA-MB-231. In words: Induction of apoptosis in human MDA-MB-231 cells assessed as early apoptotic cells incubated for 24 hrs by Annexin V-FITC/PI staining based flow cytometry (reference value: 0.22 %). It counts as functional.
Series [30] concerns MDA-MB-231. The series is described as follows: Induction of apoptosis in human MDA-MB-231 cells assessed as viable cells incubated for 24 hrs by Annexin V-FITC/PI staining based flow cytometry (reference value: 99.5 %). It counts as functional.
In series [31] the test system is MDA-MB-231. The series is described as follows: Induction of apoptosis in human MDA-MB-231 cells assessed as late apoptotic cells incubated for 24 hrs by Annexin V-FITC/PI staining based flow cytometry (reference value: 0.17 %). It counts as functional.
The nature of series [32]: Lipophilicity, logD of compound at pH 7.4. Particulars: buffer. It counts as physicochemical.
For series [33], the system named is MCF-10A. The series is described as follows: Induction of apoptosis in human MCF-10A cells assessed as necrotic cells incubated for 24 hrs by Annexin V-FITC/PI staining based flow cytometry (reference value: 0.17 %). It counts as toxicity, cell-based.
A short description of series [34]: Lipophilicity, logP of compound. It counts as physicochemical. Particulars: octanol/water.
The subject of series [35] is MDA-MB-231. In words: Cytotoxicity against human MDA-MB-231 cells incubated for 24 to 48 hrs by MTT assay. The settings on record: time 24-48 hrs. It counts as functional, cell-based.
The subject of series [36] is MDA-MB-231. In words: Cytotoxicity against human MDA-MB-231 cells assessed as inhibition of cell viability incubated for 48 hrs by MTT assay. It counts as functional, cell-based. The settings on record: MDA-MB-231, 48 h.
Series [37] can be described thus: Cytotoxicity against human MCF-10A cells assessed as inhibition of cell viability incubated for 48 hrs by MTT assay. It counts as toxicity, cell-based.
Series [38] in a line: Solubility of compound in PBS buffer at pH 7.4. It counts as physicochemical.
Series [39] concerns MCF-10A. In words: Induction of apoptosis in human MCF-10A cells assessed as early apoptotic cells incubated for 24 hrs by Annexin V-FITC/PI staining based flow cytometry (reference value: 1.66 %). It counts as toxicity, cell-based.
Series [40] is described as follows: Solubility of compound in double distilled H2O. It counts as physicochemical. Particulars: double distilled water.
A short description of series [41]: Induction of apoptosis in human MCF-10A cells assessed as viable cells incubated for 24 hrs by Annexin V-FITC/PI staining based flow cytometry (reference value: 96.0 %). It counts as toxicity, cell-based. Particulars: read-out: Activity.

Regarding `O=C(CCc1ccc(O)cc1)c1c(O)cc(O)cc1O[C@@H]1O[C@H](CO)[C@@H](O)[C@H](O)[C@H]1O` [PHLORIZIN], the IC50 (in general, the point on the concentration scale where inhibition reaches its midpoint) in the series with MDA-MB-231 [1] was 26.2 µM.

As to `Br.[N-]=[N+]=Nc1ccc(C[n+]2cccc3cccc(O)c32)cc1`, the Activity with MDA-MB-231 [2] was less than 25%.

Consider `OC[C@H]1O[C@@H](Oc2cccc3cccnc23)[C@H](O)[C@@H](O)[C@@H]1O`, for which the IC50 in the series on A549 and with MDA-MB-231 [3] was 5.56 µM throughout.

Take `Oc1cccc2cccnc12` [OXYQUINOLINE]: the Activity result in series [4] was “Non-toxic”; with MDA-MB-231 [5], 15.6%; in the series on MDA-MB-231 [7], 5.6%; with MDA-MB-231 [8], 0.19%; in the series with MDA-MB-231 [9] it was 33.76%; in the series with MDA-MB-231 [10], 80.5%. Also, the Activity with MDA-MB-231 [11] is on record as 2.66%; in the series with MDA-MB-231 [12] it was 0.88%; in the series with MCF-10A [14], “Toxic”; with MDA-MB-231 [15] it was 44.1%; in the series on MDA-MB-231 [16] it was 61.23%; with MDA-MB-231 [17], 3.8%. Further, the Activity stood at 3.39% in the series on MCF-10A [18]; 63.2% in the series with MCF-10A [21]; 24.4% in the series on MCF-10A [22]; 78.2% in the series on MDA-MB-231 [23]; 20.48% in the series on MDA-MB-231 [24]. Besides, the “inhibition (INH)” value with MDA-MB-231 [6] is given as 46.91%. Also, in the series with MDA-MB-231 [13], the viability at 0.8 µM came to 3.03%. In addition, the inhibition result with MDA-MB-231 [19] was “Active”. The viability at 24 h, 0.8 µM in series [20] was 8.98%.

Regarding `OC[C@H]1O[C@@H](Oc2ccc(COc3cccc4cccnc34)cc2)[C@H](O)[C@@H](O)[C@@H]1O`, the Activity result in [4] was “Non-toxic”; with MDA-MB-231 [25] it was 0.11%; in the series with MDA-MB-231 [8] it was 0.21%; with MCF-10A [28] it was 13.3%; in the series on MDA-MB-231 [29], 52.3%; in the series with MDA-MB-231 [30], 24.5%. The Activity was determined as 23% in the series on MDA-MB-231 [31], 0.88% in the series with MCF-10A [33] and 9.17% in the series on MCF-10A [39]. Also, the outcome in the series on MDA-MB-231 [26] was inactive. In addition, in series [27], the selectivity ratio was determined as 2.3. The logD (in general, lipophilicity at a set pH, counting ionised and neutral species) in series [32] was determined as 4.14. Also, the logP (commonly the decadic logarithm of the partition coefficient of the neutral form, usually between octanol and water) in series [34] came to 3.81. In the series with MDA-MB-231 [35], the outcome was Active. The IC50 in the series on MDA-MB-231 [36] came out at 1.2 µM. Further, the IC50 at 48 h in series [37] came to 4.13 µM. Further, the solubility – broadly, how much of the substance goes into solution per volume – in [38] amounted to 0.0156 mg/mL (≈ 37.8 µM); in series [40], 0.0173 mg/mL (≈ 41.9 µM). Moreover, the viability at 24 h in series [41] was 76.6%.
